Source: patent US4056622A, “N-sulfonyl-N-dihalophenylimidazolidinediones” (Sumitomo Chemical Company, Limited, priority 1975, dated 1977)
In brackets after ≈: the same amount, converted by molar mass.

Legend:
[1] = system: Alternaria bracissicola; experiment: Test for Alternaria bracissicola-controlling effect (chinese cabbage); type: in vivo; conditions: 7 ml per pot
Procedure: An aqueous dilution of the test compound in the form of a wettable powder preparation was applied to chinese cabbage (variety: Nozaki No. 2), cultured in pots of 9 cm in diameter and almost grown up to the two leaved stage, at a rate of 7 ml per pot. After one day, a spore suspension of Alternaria bracissicola was sprayed on the surface of the leaf for inoculation. The pots were left in a dark, moist room for one day and then under illumination for 2 days. Then, the infectious state was examined. The degree of damage was determined in the following manner. The rate of infectious area on the leaf was measured and classified in one of the infectious indexes (0, 1, 2, 3, 4, 5) according to the undermentioned criteria. The number of leaves corresponding to each infectious index (n0, n1, n2, n3, n4, n5) was determined, and calculation was effected according to the undermentioned equation.

[2] = system: Sclerotinia sclerotiorum; experiment: Test for Sclerotinia sclerotiorum-controlling effect on cucumbers; type: in vivo; conditions: cucumber; 100 ppm active ingredient, 7 ml per pot; 3 days after inoculation
Procedure: An aqueous dilution of the test compound in the form of a wettable powder preparation was applied to cucumbers, cultured in pots of 9 cm in diameter, when the first leaf was almost developed, at a rate of 7 ml per pot. After one day, Sclerotinia sclerotiorum was inoculated on the surface of the leaf, and the infectious state was examined three days thereafter. The degree of damage was determined in the following manner. The rate of infectious area on the leaf was measured and classified in one of the six infectious indexes (0, 1, 2, 3, 4, 5) according to the undermentioned criteria. The number of leaves corresponding to each infectious index (n0, n1, n2, n3, n4, n5) was determined, and calculation was effected according to the undermentioned equation.

[3] = system: Pellicularia sasakii; experiment: Test for Pellicularia sasakii-controlling effect on rice plants; type: in vivo; conditions: dust, 1.4 % active ingredient, 3 kg per 10 a, 5 days after inoculation
Procedure: The test compound in the form of a dust preparation was applied to rice plants (variety: Wase-Asahi), cultured in porcelain Wagner pots (1/500 a) and grown up to a grass height of 50 to 60 cm, at a rate of 3 kg per 10 a by the use of a duster. After one day, a mycelial disc of Pellicularia sasakii was attached to the sheath of each stem for inoculation. Five days thereafter, the size of the diseased spot generated on the sheath was measured, and the degree of damage was calculated according to the following equation to estimate the disease-controlling effect of the compound. [formula]

[4] = system: Botrytis cinerea; experiment: Test for Botrytis cinerea-controlling effect on cucumbers: disease preventing effect; type: in vivo; conditions: cucumber; 50 ppm active ingredient, 7 ml per pot; 3 days after inoculation
Procedure: An aqueous dilution of the test compound in the form of a wettable powder preparation was applied to cotyledons of cucumbers, cultered in pots of 9 cm in diameter and the first leaf was nipped off when it developed, at a rate of 7 ml per pot. After one day, agar discs (diameter: 5 mm) with Botrytis cinerea were attached to the leaves for inoculation. Three days thereafter, the disease severity was observed, and the disease-controllingeffect was estimated.
(§1) Percentage of control was determined by the following procedure. The rate of diseased area on the tested leaf was measured and classified in one of the six infectious indexes (0, 1, 2, 3, 4, 5) according to the undermentioned criteria. The number of leaves corresponding to each infectious index (n0, n1, n2, n3, n4, n5) was determined, and calculation was effected according to the undermentioned equation.

[5] = system: Botrytis cinerea; experiment: Test for Botrytis cinerea on cucumbers: effect of prevention of diseased spot-development; type: in vivo; conditions: cucumber, 7 ml per pot, applied one day after inoculation
Procedure: The test for examining the effect of prevention of diseased spot-development was carried out in the following manner. An agar disc with the mycelium was attached to the first leaf for inoculation. After one day, the diameter of the diseased spot was measured. The solution of the test compound was applied to the plant at a rate of 7 ml per pot, and two days thereafter, the diameter of the diseased spot was again measured, and the effect for prevention of diseased spot-development was calculated according to the following equation: [formula]

[6] = system: Botrytis cinerea; experiment: Test for Botrytis cinerea on cucumbers: systemic activity by the water culture method; type: in vivo; conditions: cucumber, 5 ppm solution, 3 days, 3 days after inoculation
Procedure: The systemic activity of the test compound was tested by the water culture method in the following manner. The plants were pulled out from the pots carefully so as not to damage the roots, and the soil attached to the roots was well removed by water-washing. The plants were placed into flasks containing a 5 ppm solution of the test compound (50 ml) and allowed to stand for 3 days at a constant temperature under illumination. Agar discs with the mycelium were attached to the cotyledons for inoculation, and the degree of damage was examined three days thereafter.
as §1

[7] = system: Cladosporium herbarum IAM F 517; experiment: Antimicrobial spectrum against industrial fungi, agar medium dilution method: Cladosporium herbarum; type: cell-based; conditions: IAMF517, C. herbarum, read-out: Minimal inhibitory concentration of active ingredient
From the text: (§2) The effect for inhibition of hyphae growth was examined by the agar medium dilution method on Aspergillus niger ATCC 6275, Cladosporium herbarum IAM F 517 and Chaetomium globosum ATCC 6205 multiplying on industrial products and damaging them.

[8] = system: Chaetomium globosum ATCC 6205; experiment: Antimicrobial spectrum against industrial fungi, agar medium dilution method: Chaetomium globosum; type: cell-based; conditions: ATCC6205, C. globosum, read-out: Minimal inhibitory concentration of active ingredient
From the text: as §2

[9] = system: Aspergillus niger ATCC 6275; experiment: Antimicrobial spectrum against industrial fungi, agar medium dilution method: Aspergillus niger; type: cell-based; conditions: ATCC6275, A. niger, read-out: Minimal inhibitory concentration of active ingredient
From the text: as §2

| Structure (SMILES) | Degree of damage ([1]; 100 ppm active ingredient) [%] | Degree of damage ([1]; 200 ppm active ingredient) [%] | Degree of damage [2] [%] | Disease-preventing value: Disease preventing effect [4] [%] | Disease-preventing value: Systemic activity [6] [%] | further results |
| --- | --- | --- | --- | --- | --- | --- |
| CS(=O)(=O)N1CC(=O)N(c2cc(Cl)cc(Cl)c2)C1=O [Compound 53] | 7 | 11 | – | – | – | – |
| CCS(=O)(=O)N1CC(=O)N(c2cc(Cl)cc(Cl)c2)C1=O [Compound 54] | 5 | 2 | 12 | – | – | – |
| CCCS(=O)(=O)N1CC(=O)N(c2cc(Cl)cc(Cl)c2)C1=O [Compound 55] | 0 | 0 | 0 | 100 | 88 | Degree of damage [3]: 25%; Effect for prevention of diseased spot-development ([5]; 100 ppm): 88% |
| CC(C)S(=O)(=O)N1CC(=O)N(c2cc(Cl)cc(Cl)c2)C1=O [Compound 56] | – | – | 0 | 100 | 92 | Degree of damage [3]: 19%; Effect for prevention of diseased spot-development ([5]; 100 ppm): 78% |
| CCCCS(=O)(=O)N1CC(=O)N(c2cc(Cl)cc(Cl)c2)C1=O [Compound 57] | 1 | 0 | 0 | 98 | 79 | Effect for prevention of diseased spot-development ([5]; 100 ppm): 65% |
| CC(C)CS(=O)(=O)N1CC(=O)N(c2cc(Cl)cc(Cl)c2)C1=O [Compound 58] | – | – | – | 100 | 63 | Effect for prevention of diseased spot-development ([5]; 100 ppm): 73% |
| CCC(C)S(=O)(=O)N1CC(=O)N(c2cc(Cl)cc(Cl)c2)C1=O (stereo not shown) [Compound 59] | – | – | – | – | – | Degree of damage [3]: 19%; MIC [7]: 1000 µg/mL (≈ 2740 µM); MIC [8]: 1000 µg/mL (≈ 2740 µM); MIC [9]: 1000 µg/mL (≈ 2740 µM) |
| CCCCCS(=O)(=O)N1CC(=O)N(c2cc(Cl)cc(Cl)c2)C1=O [Compound 61] | – | – | – | – | – | MIC [7]: 2000 µg/mL (≈ 5270 µM); MIC [8]: 1000 µg/mL (≈ 2640 µM); MIC [9]: 1000 µg/mL (≈ 2640 µM) |
| C=CCS(=O)(=O)N1CC(=O)N(c2cc(Cl)cc(Cl)c2)C1=O [Compound 63] | – | – | 9 | – | – | – |
| CCCS(=O)(=O)N1CC(=O)N(c2cc(Br)cc(Br)c2)C1=O [Compound 64] | – | – | 0 | – | – | – |
| CCCS(=O)(=O)N1C(=O)N(c2cc(Cl)cc(Cl)c2)C(=O)C1C (stereo not shown) [Compound 66] | – | – | 3 | – | – | Degree of damage [3]: 16% |
| CCCS(=O)(=O)N1C(=O)N(c2cc(Cl)cc(Cl)c2)C(=O)C1(C)C [Compound 69] | 21 | 6 | – | – | – | – |
| O=C1CN(S(=O)(=O)CCCCl)C(=O)N1c1cc(Cl)cc(Cl)c1 [Compound 70] | 2 | 1 | 0 | – | – | – |
| CCCCNC(=O)n1c(NC(=O)OC)nc2ccccc21 [Methyl-1-(butylcarbamoyl)-2-benzimidazole carbamate, reference compound] | – | – | 32 | 90 | 91 | Effect for prevention of diseased spot-development ([5]; 500 ppm): 87% |
| CCC(=O)N1CC(=O)N(c2cc(Cl)cc(Cl)c2)C1=O [reference compound] | – | – | – | 89 | 0 | Effect for prevention of diseased spot-development ([5]; 500 ppm): 21% |
| O=C1CNC(=O)N1c1cc(Cl)cc(Cl)c1 [reference compound] | – | – | – | 70 | 0 | Effect for prevention of diseased spot-development ([5]; 500 ppm): 13% |
